Structures can show the parent of a compound that is named as a salt. ± gives the standard deviation of the averaged measurements.
What was measured:
[1] = system: 409B2 hiPSC (iCRISPR Cas9, FRMD7 editing); assay: cell survival relative to solvent control (fold (ratio to mock)); higher = more surviving cells
Method: (§1)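 Subset screen of 55 drugs tested at 5 concentrations around the effective screening dose, in 409B2 iCRISPR Cas9 hiPSCs editing FRMD7 with a ssDNA donor. Drugs were applied for 24 h. Viability was read by resazurin and editing outcomes by amplicon sequencing (HDR, NHEJ <2 bp microhomology, MMEJ ≥2 bp microhomology). Values are relative to solvent mock controls; two biological replicates.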

[2] = system: 409B2 hiPSC (iCRISPR Cas9, FRMD7 editing); assay: NHEJ-attributed indel frequency relative to solvent control (fold (ratio to mock)); higher = more NHEJ outcomes
Method: as §1

[3] = system: 409B2 hiPSC (iCRISPR Cas9, FRMD7 editing); assay: MMEJ-attributed deletion frequency relative to solvent control (fold (ratio to mock)); higher = more MMEJ outcomes
Method: as §1

[4] = system: 409B2 hiPSC (iCRISPR Cas9, FRMD7 editing); assay: HDR (precise edit) frequency relative to solvent control (fold (ratio to mock)); higher = more homology-directed repair outcomes
Method: as §1

| SMILES | cell survival ([1]; 2000 nM) | cell survival ([1]; 5000 nM) | NHEJ-attributed indel frequency ([2]; 2000 nM) | NHEJ-attributed indel frequency ([2]; 5000 nM) | MMEJ-attributed deletion frequency ([3]; 2000 nM) | MMEJ-attributed deletion frequency ([3]; 5000 nM) | HDR ([4]; 2000 nM) | HDR ([4]; 5000 nM) | cell survival ([1]; 200 nM) | cell survival ([1]; 500 nM) | NHEJ-attributed indel frequency ([2]; 200 nM) | NHEJ-attributed indel frequency ([2]; 500 nM) | MMEJ-attributed deletion frequency ([3]; 200 nM) | MMEJ-attributed deletion frequency ([3]; 500 nM) | HDR ([4]; 200 nM) | HDR ([4]; 500 nM) | cell survival ([1]; 1000 nM) | NHEJ-attributed indel frequency ([2]; 1000 nM) | MMEJ-attributed deletion frequency ([3]; 1000 nM) | HDR ([4]; 1000 nM) | also measured |
| --- | --- | --- | --- | --- | --- | --- | --- | --- | --- | --- | --- | --- | --- | --- | --- | --- | --- | --- | --- | --- | --- |
| CCN1CCC[C@H]1CNC(=O)c1cc(S(N)(=O)=O)ccc1OC [Levosulpiride] (in DMSO) | 1.06 | 1.32 | 0.98 ± 0.013 | 0.9952 ± 0.0031 | 1.07 ± 0.1 | 1.06 ± 0.0093 | 1.05 ± 0.047 | 1.07 ± 0.081 |  |  |  |  |  |  |  |  |  |  |  |  | cell survival ([1]; 10000 nM): 1.26; cell survival ([1]; 20000 nM): 1.18; cell survival ([1]; 50000 nM): 1.33; NHEJ-attributed indel frequency ([2]; 10000 nM): 0.9818 ± 0.0064; NHEJ-attributed indel frequency ([2]; 20000 nM): 1 ± 0.012; NHEJ-attributed indel frequency ([2]; 50000 nM): 0.978 ± 0.038; MMEJ-attributed deletion frequency ([3]; 10000 nM): 0.994 ± 0.19; MMEJ-attributed deletion frequency ([3]; 20000 nM): 1 ± 0.04; MMEJ-attributed deletion frequency ([3]; 50000 nM): 1 ± 0.04; HDR ([4]; 10000 nM): 1.13 ± 0.019; HDR ([4]; 20000 nM): 1.06 ± 0.13; HDR ([4]; 50000 nM): 1.09 ± 0.081 |
| CN(C)C(=O)C(CCN1CCC(O)(c2ccc(Cl)cc2)CC1)(c1ccccc1)c1ccccc1 [Loperamide HCl] (in DMSO) | 0.928 | 1.24 | 0.923 ± 0.077 | 0.9735 ± 0.0074 | 1.31 ± 0.23 | 1.1 ± 0.094 | 0.9969 ± 0.0053 | 1.01 ± 0.044 |  |  |  |  |  |  |  |  |  |  |  |  | cell survival ([1]; 10000 nM): 0.607; cell survival ([1]; 20000 nM): -0.00906; cell survival ([1]; 50000 nM): -0.00864; NHEJ-attributed indel frequency ([2]; 10000 nM): 0.928 ± 0.06; NHEJ-attributed indel frequency ([2]; 20000 nM): 0.324 ± 0.053; NHEJ-attributed indel frequency ([2]; 50000 nM): 0.186 ± 0.085; MMEJ-attributed deletion frequency ([3]; 10000 nM): 0.998 ± 0.032; MMEJ-attributed deletion frequency ([3]; 20000 nM): 0.465 ± 0.16; MMEJ-attributed deletion frequency ([3]; 50000 nM): 0.224 ± 0.07; HDR ([4]; 10000 nM): 0.873 ± 0.035; HDR ([4]; 20000 nM): 0.136 ± 0.067; HDR ([4]; 50000 nM): 0.138 ± 0.11 |
| CC(=O)O[C@]1(C(C)=O)CC[C@H]2[C@@H]3C=C(C)C4=CC(=O)CC[C@]4(C)[C@H]3CC[C@@]21C [Megestrol Acetate] (in EtOH) |  |  |  |  |  |  |  |  | 1.12 | 1.05 | 1 ± 0.045 | 1.02 ± 0.032 | 1.1 ± 0.091 | 0.9348 ± 0.0058 | 0.953 ± 0.015 | 0.96 ± 0.028 |  |  |  |  | cell survival ([1]; 20 nM): 1.6; cell survival ([1]; 50 nM): 1.46; cell survival ([1]; 100 nM): 1.18; NHEJ-attributed indel frequency ([2]; 20 nM): 0.999 ± 0.028; NHEJ-attributed indel frequency ([2]; 50 nM): 1.004 ± 0.007; NHEJ-attributed indel frequency ([2]; 100 nM): 1.03 ± 0.037; MMEJ-attributed deletion frequency ([3]; 20 nM): 1.01 ± 0.013; MMEJ-attributed deletion frequency ([3]; 50 nM): 1.16 ± 0.079; MMEJ-attributed deletion frequency ([3]; 100 nM): 0.9716 ± 0.0036; HDR ([4]; 20 nM): 0.975 ± 0.027; HDR ([4]; 50 nM): 0.93 ± 0.072; HDR ([4]; 100 nM): 0.95 ± 0.068 |
| CCCCCCCCCCCCCC(=O)O [Myristic Acid] (in DMSO) |  |  |  |  |  |  |  |  | 1.25 | 1.49 | 0.981 ± 0.024 | 0.967 ± 0.0099 | 1.1 ± 0.051 | 1.03 ± 0.099 | 1.07 ± 0.019 | 1.1 ± 0.064 |  |  |  |  | cell survival ([1]; 20 nM): 1.01; cell survival ([1]; 50 nM): 1.23; cell survival ([1]; 100 nM): 1.07; NHEJ-attributed indel frequency ([2]; 20 nM): 0.9964 ± 0.0076; NHEJ-attributed indel frequency ([2]; 50 nM): 1.0053 ± 2.8e-05; NHEJ-attributed indel frequency ([2]; 100 nM): 1.016 ± 0.003; MMEJ-attributed deletion frequency ([3]; 20 nM): 0.977 ± 0.13; MMEJ-attributed deletion frequency ([3]; 50 nM): 0.921 ± 0.13; MMEJ-attributed deletion frequency ([3]; 100 nM): 1.02 ± 0.2; HDR ([4]; 20 nM): 1.04 ± 0.025; HDR ([4]; 50 nM): 1.03 ± 0.072; HDR ([4]; 100 nM): 1.034 ± 0.01 |
| C[C@@H]1O[C@@H](O[C@H]2C[C@@H](O)[C@]3(CO)[C@H]4[C@H](O)C[C@]5(C)[C@@H](C6=CC(=O)OC6)CC[C@]5(O)[C@@H]4CC[C@]3(O)C2)[C@H](O)[C@H](O)[C@H]1O [Ouabain Octahydrate] (in H2O) | 0.0512 | 0.0777 | 0.523 ± 0.026 | 0.539 ± 0.1 | 3.06 ± 0.43 | 2.82 ± 1.1 | 0.0693 ± 0.021 | 0.0683 ± 0.03 |  |  |  |  |  |  |  |  |  |  |  |  | cell survival ([1]; 10000 nM): 0.0589; cell survival ([1]; 20000 nM): 0.0655; cell survival ([1]; 50000 nM): 0.585; NHEJ-attributed indel frequency ([2]; 10000 nM): 0.435 ± 0.13; NHEJ-attributed indel frequency ([2]; 20000 nM): 0.392 ± 0.093; NHEJ-attributed indel frequency ([2]; 50000 nM): 0.736 ± 0.38; MMEJ-attributed deletion frequency ([3]; 10000 nM): 2.58 ± 0.43; MMEJ-attributed deletion frequency ([3]; 20000 nM): 2.31 ± 0.4; MMEJ-attributed deletion frequency ([3]; 50000 nM): 1.87 ± 1.1; HDR ([4]; 10000 nM): 0.0814 ± 0.045; HDR ([4]; 20000 nM): 0.068 ± 0.013; HDR ([4]; 50000 nM): 0.505 ± 0.64 |
| CC1(C)S[C@@H]2[C@H](NC(=O)COc3ccccc3)C(=O)N2[C@H]1C(=O)O [Penicillin V potassium salt] (in DMSO) | 0.894 | 0.923 | 1 ± 0.021 | 1.01 ± 0.013 | 1.1 ± 0.047 | 1.05 ± 0.11 | 1.01 ± 0.062 | 0.964 ± 0.11 | 0.876 | 1.15 | 1.006 ± 0.0015 | 1.012 ± 0.0034 | 1.02 ± 0.097 | 0.994 ± 0.04 | 0.992 ± 0.094 | 1.05 ± 0.012 | 0.976 | 0.9903 ± 0.0037 | 0.963 ± 0.15 | 0.992 ± 0.02 |  |
| Cc1c(C(C)C)c(=O)n(-c2ccccc2)n1C [Propyphenazone (4-Isopropylantipyrine)] (in DMSO) | 1.2 | 1.13 | 0.995 ± 0.035 | 0.988 ± 0.014 | 0.954 ± 0.091 | 0.965 ± 0.06 | 1.07 ± 0.064 | 1.08 ± 0.031 | 1.03 | 1.24 | 1.01 ± 0.013 | 0.993 ± 0.022 | 0.984 ± 0.021 | 0.969 ± 0.059 | 1.04 ± 0.021 | 1.11 ± 0.044 | 1.03 | 0.993 ± 0.041 | 0.881 ± 0.036 | 1.1 ± 0.068 |  |
| Cc1nc(=O)c2cc(CN(C)c3ccc(C(=O)N[C@@H](CCC(=O)O)C(=O)O)s3)ccc2[nH]1 [Raltitrexed] (in DMSO) | 1.05 | 1.11 | 0.981 ± 0.026 | 0.957 ± 0.039 | 0.948 ± 0.012 | 1.02 ± 0.057 | 1.13 ± 0.042 | 1.13 ± 0.14 | 1.09 | 1.21 | 0.977 ± 0.023 | 0.967 ± 0.01 | 1.01 ± 0.14 | 1 ± 0.078 | 1.138 ± 0.0048 | 1.13 ± 0.038 | 0.963 | 0.984 ± 0.021 | 1.12 ± 0.035 | 1.16 ± 0.1 |  |
| Oc1cccc(O)c1 [Resorcinol] (in DMSO) | 1.03 | 1.12 | 0.999 ± 0.033 | 0.99 ± 0.043 | 0.934 ± 0.13 | 0.922 ± 0.16 | 1.07 ± 0.021 | 1.06 ± 0.073 | 1.15 | 1.17 | 0.988 ± 0.024 | 0.995 ± 0.0014 | 0.916 ± 0.095 | 0.884 ± 0.054 | 1.07 ± 0.072 | 1.08 ± 0.038 | 0.955 | 1 ± 0.043 | 0.824 ± 0.045 | 1.11 ± 0.026 |  |
| CC[C@H](CO)Nc1nc(NCc2ccccc2)c2ncn(C(C)C)c2n1 [Roscovitine (Seliciclib,CYC202)] (in DMSO) |  |  |  |  |  |  |  |  | 0.955 | 1.17 | 0.995 ± 0.037 | 1 ± 0.021 | 0.943 ± 0.18 | 1 ± 0.058 | 1.02 ± 0.043 | 1.11 ± 0.049 |  |  |  |  | cell survival ([1]; 20 nM): 1.04; cell survival ([1]; 50 nM): 1.14; cell survival ([1]; 100 nM): 0.963; NHEJ-attributed indel frequency ([2]; 20 nM): 1.004 ± 0.0097; NHEJ-attributed indel frequency ([2]; 50 nM): 1 ± 0.011; NHEJ-attributed indel frequency ([2]; 100 nM): 0.992 ± 0.013; MMEJ-attributed deletion frequency ([3]; 20 nM): 0.952 ± 0.12; MMEJ-attributed deletion frequency ([3]; 50 nM): 0.912 ± 0.082; MMEJ-attributed deletion frequency ([3]; 100 nM): 0.943 ± 0.021; HDR ([4]; 20 nM): 1.06 ± 0.024; HDR ([4]; 50 nM): 0.983 ± 0.017; HDR ([4]; 100 nM): 1.08 ± 0.043 |
